Source: publication PMC7970697, “Inhibition and Induction by Poziotinib of Different Rat Cytochrome P450 Enzymes In Vivo and in an In Vitro Cocktail Method” (Frontiers in Pharmacology, 2021)
Where two headings read alike, the source gives them in different places.

What was measured:
cyp3a1/2 [1] = assay: Cocktail method IC50 in rat liver microsomes, midazolam probe; type: in vitro ADME
Method: (§1) The cocktail method was employed to analyze the effects of poziotinib on cyp1a2, cyp2b1, cyp2c11, cyp2d1, cyp2e1, and cyp3a1/2. […] Then half-maximal inhibitory concentration (IC50) of poziotinib was determined with all of the CYPs. […]. To this cocktail, 1 mg/ml of RLMs, 100 mM potassium phosphate buffer (pH 7.4), poziotinib (1, 2.5, 5, 10, 25, 50, or 100 μM) were added to obtain a final volume of 200 μL. After pre-incubation of this mixture for 5 min in a shaking water bath at 37°C, 1 mM NADPH was added to start the reaction. The reactions were allowed to proceed for 30 min, after which 200 μL of acetonitrile and 20 μL of IS were added to terminate the reactions. The mixtures were vortexed for 30 s and centrifuged again at 13,000 rpm for 5 min.

cyp2b1 = target: T1, cyp2b1 (Rattus norvegicus, UniProt P00176); assay: Time- and concentration-dependent inhibition in RLMs, bupropion; type: in vitro ADME; design: from tissue; host or cells: rat liver microsomes, prepared in-house
T1 sequence (P00176 1-491): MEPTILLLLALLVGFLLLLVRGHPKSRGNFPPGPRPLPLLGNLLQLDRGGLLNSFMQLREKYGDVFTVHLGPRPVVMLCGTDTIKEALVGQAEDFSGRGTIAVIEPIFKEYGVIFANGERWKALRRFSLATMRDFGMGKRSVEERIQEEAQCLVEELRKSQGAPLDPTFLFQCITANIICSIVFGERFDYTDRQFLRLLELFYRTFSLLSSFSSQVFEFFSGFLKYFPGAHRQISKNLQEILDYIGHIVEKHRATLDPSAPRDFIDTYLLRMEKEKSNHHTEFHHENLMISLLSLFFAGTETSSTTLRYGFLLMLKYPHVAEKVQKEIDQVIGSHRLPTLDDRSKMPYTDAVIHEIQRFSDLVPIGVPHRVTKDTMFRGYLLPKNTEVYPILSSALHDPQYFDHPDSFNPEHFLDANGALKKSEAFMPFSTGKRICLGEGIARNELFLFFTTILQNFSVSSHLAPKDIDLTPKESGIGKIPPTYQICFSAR
Method: (§2) A mixture containing 1 mg/ml of RLMs, different concentrations of poziotinib (0, 2, 4, 8 and16 μM for 2b1; 0, 5, 10 20 and 40 μM for 2c11), and NADPH was pre-incubated at 37°C for 0, 5, 10, and 20 min; Methanol instead of poziotinib was performed as control. Then 20 μM bupropion or 100 μM tolbutamide was added and incubated at 37°C for 30 min. The reactions were carried out and analyzed in triplicate as described in 2.3.

cyp2d1 [2] = target: T2, cyp2d1 (Rattus norvegicus, UniProt P10633); assay: Effect of poziotinib on cyp2d1 activity in rats (dextromethorphan pharmacokinetics); type: in vivo, Sprague-Dawley rats; design: from tissue; host or cells: living male Sprague-Dawley rats (whole animal); details: poziotinib 5 mg/kg oral 7 days, dextromethorphan probe
T2 sequence (P10633 1-504): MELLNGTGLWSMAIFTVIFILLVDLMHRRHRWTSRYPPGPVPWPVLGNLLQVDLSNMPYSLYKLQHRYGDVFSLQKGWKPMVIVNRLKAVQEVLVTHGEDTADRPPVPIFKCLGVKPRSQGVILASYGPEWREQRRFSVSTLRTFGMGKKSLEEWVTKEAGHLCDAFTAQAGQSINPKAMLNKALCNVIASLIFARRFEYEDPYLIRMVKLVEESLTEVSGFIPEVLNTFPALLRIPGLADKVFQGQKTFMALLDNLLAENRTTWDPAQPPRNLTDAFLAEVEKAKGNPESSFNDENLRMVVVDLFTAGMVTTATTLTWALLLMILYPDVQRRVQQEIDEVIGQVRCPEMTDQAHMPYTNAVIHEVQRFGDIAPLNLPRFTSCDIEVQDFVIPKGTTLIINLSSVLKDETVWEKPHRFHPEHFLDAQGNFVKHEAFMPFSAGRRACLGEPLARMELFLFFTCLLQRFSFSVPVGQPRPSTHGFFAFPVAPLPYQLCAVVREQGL
Method: (§3) Twelve male Sprague-Dawley rats (230 ± 20 g) were randomly divided into treated and control groups, with 6 in each group. […] The supernatant was mixed with 200 μL of acetonitrile and 20 μL of 0.5 μg/ml diazepam (IS), vortexed for 30 s, centrifuged at 13,000 rpm for 5 min, and the supernatant was injected into the UPLC-MS/MS system for analysis.
(§4) Pharmacokinetic parameters were calculated using DAS software (Version 3.2.8). SPSS software (version 16.0; SPSS Inc., Chicago, IL, United States) was used to analyze the significance of differences between the main pharmacokinetic parameters. p < 0.05 was considered statistically significant. GraphPad (version 8.0; GraphPad Software Inc., San Diego, CA, United States) was used to calculate IC50 and plot the plasma concentration-time curves and inhibition plots (type of inhibition, time- and concentration-dependence).

cyp2c11 [3] = target: T3, cyp2c11 (Rattus norvegicus, UniProt P08683); assay: Time- and concentration-dependent inhibition in RLMs, tolbutamide; type: in vitro ADME; design: from tissue; host or cells: rat liver microsomes, prepared in-house
T3 sequence (P08683 1-500): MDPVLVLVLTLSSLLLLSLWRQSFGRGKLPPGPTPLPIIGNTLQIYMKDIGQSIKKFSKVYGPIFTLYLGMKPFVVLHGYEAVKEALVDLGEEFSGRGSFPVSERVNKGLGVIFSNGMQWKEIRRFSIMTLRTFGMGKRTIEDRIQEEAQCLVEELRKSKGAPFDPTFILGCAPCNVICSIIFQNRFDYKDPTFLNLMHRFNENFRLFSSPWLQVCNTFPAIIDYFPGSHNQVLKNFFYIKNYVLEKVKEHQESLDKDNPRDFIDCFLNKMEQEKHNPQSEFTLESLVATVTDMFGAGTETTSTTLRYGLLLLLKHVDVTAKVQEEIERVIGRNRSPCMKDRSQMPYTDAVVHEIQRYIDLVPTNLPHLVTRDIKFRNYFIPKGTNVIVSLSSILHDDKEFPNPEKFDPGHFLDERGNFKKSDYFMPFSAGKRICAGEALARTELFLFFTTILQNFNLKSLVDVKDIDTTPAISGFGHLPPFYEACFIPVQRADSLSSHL
Method: as §2

cyp3a1/2 [4] = assay: Effect of poziotinib on cyp3a1/2 activity in rats (midazolam pharmacokinetics); type: in vivo, Sprague-Dawley rats; details: poziotinib 5 mg/kg oral 7 days, midazolam probe
Method: as §3, §4

cyp2c11 [5] = target: T3, cyp2c11; assay: Effect of poziotinib on cyp2c11 activity in rats (tolbutamide pharmacokinetics); type: in vivo, Sprague-Dawley rats; design: from tissue; host or cells: living male Sprague-Dawley rats (whole animal); details: poziotinib 5 mg/kg oral 7 days, tolbutamide probe
Method: as §3, §4

cyp1a2 = assay: Effect of poziotinib on cyp1a2 activity in rats (phenacetin pharmacokinetics); type: in vivo, Sprague-Dawley rats; details: poziotinib 5 mg/kg oral 7 days, phenacetin probe
Method: as §3, §4

cyp2d1 [6] = target: T2, cyp2d1; assay: Cocktail method IC50 in rat liver microsomes, dextromethorphan probe; type: in vitro ADME
Method: as §1

[7] = design: method as in He et al., 2019; Kim T. Y. et al., 2019; details: treatment, ref He et al., 2019, Kim T. Y. et al.; cited from earlier work
[8] = pre-incubation 0, 5, 10, 20 min with NADPH

SMILES: C=CC(=O)N1CCC(Oc2cc3c(Nc4ccc(Cl)c(Cl)c4F)ncnc3cc2OC)CC1 [Poziotinib]
- inhibitory effect on cyp3a1/2 (in words) (cyp3a1/2 [1]): did not show any obvious inhibitory effect
- inhibitory effect on cyp3a1/2 (in words) (cyp3a1/2 [1]; listed as poziotinib): not obvious
- IC50 at 30 min (cyp3a1/2 [1]; pH 7.4, probe midazolam (5 μM), 5 μM midazolam, cocktail, 30 min): 303 µM
- time- and concentration-dependent inhibition of cyp2b1 (cyp2b1; pre-incubation 0, 5, 10, 20 min, poziotinib 2-16 μM): no time- or concentration-dependent inhibitory effects
- reversibility of inhibition of cyp2b1 (cyp2b1; [8]): reversible
- effect on cyp2d1 activity in rats (cyp2d1 [2]): no obvious inhibitory effect
- time- and concentration-dependent inhibition of cyp2c11 (cyp2c11 [3]; pre-incubation 0, 5, 10, 20 min, poziotinib 5-40 μM): no time- or concentration-dependent inhibitory effects
- reversibility of inhibition of cyp2c11 (cyp2c11 [3]; [8]): reversible
- effect on cyp3a1/2 activity in rats (cyp3a1/2 [4]): no significant inhibitory effect
- effect on cyp2c11 activity in rats (cyp2c11 [5]): significantly inhibitory effect
- effect on cyp1a2 activity in rats (cyp1a2): induces cyp1a2 activity
- inhibitory effect on cyp2d1 (in words) (cyp2d1 [6]): weak inhibition
- inhibitory effect on cyp2d1 (in words) (cyp2d1 [6]; listed as poziotinib): not obvious
- IC50 at 30 min (cyp2d1 [6]; pH 7.4, probe dextromethorphan (10 μM), 10 μM dextromethorphan, cocktail, 30 min): 62 µM
- common adverse reactions [7]: rash, diarrhea, and itching
